The test concerns the target Factor IXa (Homo sapiens, UniProt P00740). Kind of test: Determination of inhibitory activity against Factor IXa (cleavage of fluorescent peptide substrate). To be noted: cleavage of fluorescent peptide CH3SO2-D-CHG-Gly-Arg-AFC, release of AFC; read-out: FIXa IC50. Type of test: biochemical. An excerpt:
• (R)—N-(3-aminobenzo[d]isoxazol-6-yl)-2-hydroxy-2-((R)-4-(1-(6-methoxypyridazin-4-yl)-1H-pyrazol-3-yl)-6,6-dimethyl-3-oxomorpholin-2-yl)acetamide. Determination of Inhibitory Activity Against Factor IXa
Formation of a clot to stem bleeding at a site of blood vessel injury involves the coordinated activity of a group of plasma proteins that initiate and propagate fibrin formation and subsequently protect fibrin from premature degradation. Factor IX is a key component of the plasma system that forms a fibrin clot at a site of vascular injury. The activity of Factor IXa is measured by monitoring the cleavage of the fluorescent peptide, CH3SO2-D-CHG-Gly-Arg-AFC.AcOH (“CHG” is cyclohexyl-glycine and “AFC” is trifluoro aminomethyl coumarin). Factor IXa cleaves the amide bond between Arg and AFC, thereby releasing the AFC fluorophore. The free AFC can be detected with a fluorescence detector at an excitation wavelength of 405 nm and emission wavelength of 510 nm.
Chain of Factor IXa (P00740 227-461 limits assumed): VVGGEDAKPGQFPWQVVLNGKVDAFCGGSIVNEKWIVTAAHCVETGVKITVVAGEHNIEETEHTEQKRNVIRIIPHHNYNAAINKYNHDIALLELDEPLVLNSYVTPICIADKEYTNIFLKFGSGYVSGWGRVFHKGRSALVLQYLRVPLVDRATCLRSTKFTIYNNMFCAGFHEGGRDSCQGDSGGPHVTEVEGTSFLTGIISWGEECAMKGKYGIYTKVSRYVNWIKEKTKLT
Chain of Factor IXa (P00740 47-191 partner limits assumed): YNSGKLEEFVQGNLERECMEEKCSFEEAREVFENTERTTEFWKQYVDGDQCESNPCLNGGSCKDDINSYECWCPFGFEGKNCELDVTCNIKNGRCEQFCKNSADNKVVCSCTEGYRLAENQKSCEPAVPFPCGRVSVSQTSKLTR
As usually defined, the IC50 is the concentration that gives 50% inhibition. For the compound `COc1cc(-n2nc(N3CCO[C@H]([C@@](C)(O)C(=O)Nc4ccc5c(N)noc5c4)C3=O)cc2C)ccn1` [Example 36, (R)—N-(3-aminobenzo[d]isoxazol-6-yl)-2-hydroxy-2-((R)-4-(1-(2-methoxypyridin-4-yl)-5-methyl-1H-pyrazol-3-yl)-3-oxomorpholin-2-yl)propanamide], the IC50 worked out at 96.3 nM.
Regarding `C[C@](O)(C(=O)Nc1ccc2c(N)noc2c1)[C@H]1OCCN(c2ccn(-c3ccnnc3)n2)C1=O` [Example 37, (R)—N-(3-aminobenzo[d]isoxazol-6-yl)-2-hydroxy-2-((R)-3-oxo-4-(1-(pyridazin-4-yl)-1H-pyrazol-3-yl)morpholin-2-yl)propanamide], the IC50 is 4.36 nM.
In the case of `C[C@](O)(C(=O)Nc1ccc2c(N)noc2c1)[C@H]1OCCN(c2ccn(-c3cnnc(N4CCC4)c3)n2)C1=O` [Example 38, (R)—N-(3-aminobenzo[d]isoxazol-6-yl)-2-((R)-4-(1-(6-(azetidin-1-yl)pyridazin-4-yl)-1H-pyrazol-3-yl)-3-oxomorpholin-2-yl)-2-hydroxypropanamide] it was 23.2 nM; in that of `COc1cc(-n2ccc(N3CCO[C@H]([C@@](C)(O)C(=O)Nc4ccc5c(N)noc5c4)C3=O)n2)cnn1` [Example 39, (R)—N-(3-aminobenzo[d]isoxazol-6-yl)-2-hydroxy-2-((R)-4-(1-(6-methoxypyridazin-4-yl)-1H-pyrazol-3-yl)-3-oxomorpholin-2-yl)propanamide], 160 nM; in that of `[2H]C([2H])([2H])Oc1cc(-n2ccc(N3CCO[C@H]([C@@](C)(O)C(=O)Nc4ccc5c(N)noc5c4)C3=O)n2)cnn1` [Example 40, (2R)—N-(3-amino-1,2-benzoxazol-6-yl)-2-hydroxy-2-[(2R)-3-oxo-4-[1-[6-(trideuteriomethoxy)pyridazin-4-yl]pyrazol-3-yl]morpholin-2-yl]propanamide], 3.7 nM.
In the case of `CC(C)Oc1cc(-n2ccc(N3CCO[C@H]([C@@](C)(O)C(=O)Nc4ccc5c(N)noc5c4)C3=O)n2)cnn1` [Example 41, (R)—N-(3-aminobenzo[d]isoxazol-6-yl)-2-hydroxy-2-((R)-4-(1-(6-isopropoxypyridazin-4-yl)-1H-pyrazol-3-yl)-3-oxomorpholin-2-yl)propanamide] it was 57.8 nM; in that of `C[C@](O)(C(=O)Nc1ccc2c(N)noc2c1)[C@H]1OCCN(c2ccn(-c3cnnc(OC4CCC4)c3)n2)C1=O` [Example 43, (R)—N-(3-aminobenzo[d]isoxazol-6-yl)-2-((R)-4-(1-(6-cyclobutoxypyridazin-4-yl)-1H-pyrazol-3-yl)-3-oxomorpholin-2-yl)-2-hydroxypropanamide], 535 nM; in that of `Cn1ncc(-n2ccc(N3CCO[C@H]([C@@](C)(O)C(=O)Nc4ccc5c(N)noc5c4)C3=O)n2)cc1=O` [Example 44, (R)—N-(3-aminobenzo[d]isoxazol-6-yl)-2-hydroxy-2-((R)-4-(1-(1-methyl-6-oxo-1,6-dihydropyridazin-4-yl)-1H-pyrazol-3-yl)-3-oxomorpholin-2-yl)propanamide], 812 nM.
In the case of `C[C@](O)(C(=O)Nc1ccc2c(N)noc2c1)[C@H]1OCCN(c2ccn(-c3cnnc(C#N)c3)n2)C1=O` [Example 45, (R)—N-(3-aminobenzo[d]isoxazol-6-yl)-2-((R)-4-(1-(6-cyanopyridazin-4-yl)-1H-pyrazol-3-yl)-3-oxomorpholin-2-yl)-2-hydroxypropanamide], the IC50 came out at 2.6 nM.
The figure for `C[C@](O)(C(=O)Nc1ccc2c(N)noc2c1)[C@H]1OCCN(c2ccn(-c3cnnc(C(F)(F)F)c3)n2)C1=O` [Example 46, (R)—N-(3-aminobenzo[d]isoxazol-6-yl)-2-hydroxy-2-((R)-3-oxo-4-(1-(6-(trifluoromethyl)pyridazin-4-yl)-1H-pyrazol-3-yl)morpholin-2-yl)propanamide] is 1.41 nM.
Turning to `C[C@](O)(C(=O)Nc1ccc2c(N)noc2c1)[C@H]1OCCN(c2nn(-c3ccnnc3)cc2F)C1=O` [Example 47, (R)—N-(3-aminobenzo[d]isoxazol-6-yl)-2-((R)-4-(4-fluoro-1-(pyridazin-4-yl)-1H-pyrazol-3-yl)-3-oxomorpholin-2-yl)-2-hydroxypropanamide], the IC50 stood at 6.91 nM.
The figure for `C[C@](O)(C(=O)Nc1ccc2c(N)noc2c1)[C@H]1OCCN(c2nn(-c3cnnc(C#N)c3)cc2F)C1=O` [Example 48, (R)—N-(3-aminobenzo[d]isoxazol-6-yl)-2-((R)-4-(1-(6-cyanopyridazin-4-yl)-4-fluoro-1H-pyrazol-3-yl)-3-oxomorpholin-2-yl)-2-hydroxypropanamide] is 4.15 nM; for `COc1cc(-n2cc(F)c(N3CCO[C@H]([C@@](C)(O)C(=O)Nc4ccc5c(N)noc5c4)C3=O)n2)cnn1` [Example 49, (R)—N-(3-aminobenzo[d]isoxazol-6-yl)-2-((R)-4-(4-fluoro-1-(6-methoxypyridazin-4-yl)-1H-pyrazol-3-yl)-3-oxomorpholin-2-yl)-2-hydroxypropanamide] it is 6.48 nM.
In the case of `C[C@](O)(C(=O)Nc1ccc2c(N)noc2c1)[C@H]1OCCN(c2nn(-c3cnnc(C(F)(F)F)c3)cc2F)C1=O` [Example 50, (R)—N-(3-aminobenzo[d]isoxazol-6-yl)-2-((R)-4-(4-fluoro-1-(6-(trifluoromethyl)pyridazin-4-yl)-1H-pyrazol-3-yl)-3-oxomorpholin-2-yl)-2-Hydroxypropanamide] it was 1.89 nM; in that of `Cc1nccc(-n2ccc(N3CCO[C@H]([C@@](C)(O)C(=O)Nc4ccc5c(N)noc5c4)C3=O)n2)n1` [Example 51, (R)—N-(3-aminobenzo[d]isoxazol-6-yl)-2-hydroxy-2-((R)-4-(1-(2-methylpyrimidin-4-yl)-1H-pyrazol-3-yl)-3-oxomorpholin-2-yl)propanamide], 170 nM; in that of `CN(C)c1nccc(-n2ccc(N3CCO[C@H]([C@@](C)(O)C(=O)Nc4ccc5c(N)noc5c4)C3=O)n2)n1` [Example 52, (R)—N-(3-aminobenzo[d]isoxazol-6-yl)-2-((R)-4-(1-(2-(dimethylamino)pyrimidin-4-yl)-1H-pyrazol-3-yl)-3-oxomorpholin-2-yl)-2-Hydroxypropanamide], 102 nM.
Consider `C[C@](O)(C(=O)Nc1ccc2c(N)noc2c1)[C@H]1OCCN(c2ccn(-c3ccnc(C(F)(F)F)n3)n2)C1=O` [Example 53, (R)—N-(3-aminobenzo[d]isoxazol-6-yl)-2-hydroxy-2-((R)-3-oxo-4-(1-(2-(trifluoromethyl)pyrimidin-4-yl)-1H-pyrazol-3-yl)morpholin-2-yl)propanamide], for which the IC50 came out at 76.7 nM.
As for `C[C@](O)(C(=O)Nc1ccc2c(N)noc2c1)[C@H]1OCCN(c2ccn(-c3ccnc(C#N)n3)n2)C1=O` [Example 54, (R)—N-(3-aminobenzo[d]isoxazol-6-yl)-2-((R)-4-(1-(2-cyanopyrimidin-4-yl)-1H-pyrazol-3-yl)-3-oxomorpholin-2-yl)-2-hydroxypropanamide], the IC50 is 145 nM.
The figure for `COc1nccc(-n2ccc(N3CCO[C@H]([C@@](C)(O)C(=O)Nc4ccc5c(N)noc5c4)C3=O)n2)n1` [Example 55, (R)—N-(3-aminobenzo[d]isoxazol-6-yl)-2-hydroxy-2-((R)-4-(1-(2-methoxypyrimidin-4-yl)-1H-pyrazol-3-yl)-3-oxomorpholin-2-yl)propanamide] is 24.8 nM.
